According to the supplement of paper PMC3493320:

Test system: NCI-H295R
Assay: IC50 (antiproliferative, ATP content)
Settings: 48 h
Procedure, shortened: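 Compounds were pin-transferred at 8 final concentrations between 0.6 nM and 46 µM onto adrenocortical carcinoma cells (1500 per well, 1536-well plates) that had been cultured overnight in serum-free DMEM with ITS. Plates then stood 48 h at 37 °C, 5% CO2, and ATP was detected by CellTiter-Glo luminescence. IC50 was derived from logistic fits of normalised signal, and compounds giving no concentration response were noted as above the top dose.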

SMILES	IC50 [µM]
CC(C)(C)NC[C@H](O)COc1ccccc1C1CCCC1.CC(C)(C)NC[C@H](O)COc1ccccc1C1CCCC1.O=S(=O)(O)O	> 46
CN[C@@H]1[C@H](O[C@H]2[C@H](O[C@H]3[C@H](O)[C@@H](O)[C@H](NC(=N)N)[C@@H](O)[C@@H]3NC(=N)N)O[C@@H](C)[C@]2(O)C=O)O[C@@H](CO)[C@H](O)[C@H]1O.CN[C@@H]1[C@H](O[C@H]2[C@H](O[C@H]3[C@H](O)[C@@H](O)[C@H](NC(=N)N)[C@@H](O)[C@@H]3NC(=N)N)O[C@@H](C)[C@]2(O)C=O)O[C@@H](CO)[C@H](O)[C@H]1O.O=S(=O)(O)O.O=S(=O)(O)O.O=S(=O)(O)O	> 46
FC(F)(F)COCC(F)(F)F	> 46
O=C1Nc2ccc(Cl)cc2C(c2ccccc2Cl)=NC1O (stereo unspecified)	> 46
COc1ccc(C(=O)c2ccccc2O)c(O)c1	> 46
Nc1ccc(S(=O)(=O)NCc2ccccc2)cc1	> 46
CN1CCN(C(c2ccccc2)c2ccccc2)CC1.Cl.Cl	> 46
Cc1c(C(C)C)c(=O)n(-c2ccccc2)n1C	> 46
CNC(=O)Oc1ccccc1C(=O)Nc1ccccc1	> 46
CCOC(=O)c1cncn1C(C)c1ccccc1 (stereo unspecified)	> 46
Cl.N=C(N)NC(=N)NCCc1ccccc1	> 46
O=C([O-])CCC1=C(C)C/3=N\C1=C/C2=C(CCC([O-])=O)C(C)=C(/C=C(C(C=C)=C4C)\N=C4/C=C(C(C=C)=C5C)\N\C5=C3)N2.[Na+].[Na+]	> 46
CN1CCN(CCCN2c3ccccc3Sc3ccc(C(F)(F)F)cc32)CC1.Cl.Cl	> 46
CC(NNC(=O)c1ccccc1)c1ccccc1 (stereo unspecified)	> 46
CC(c1cc2ccccc2s1)N(O)C(N)=O (stereo unspecified)	> 46
O=C([O-])P(=O)([O-])[O-].[Na+].[Na+].[Na+]	> 46
CC(C)NC(=N)NC(=N)Nc1ccc(Cl)cc1.Cl	> 46
O=[C@@](OC)[C@H]([C@H]3OC)[C@@]2([H])C[C@](N4C[C@]([H])2C[C@H]3OC(C=CC6=CC(OC)=C(OC)C(OC)=C6)=O)([H])C1=C(CC4)C(C=C5)=C(C=C5OC)N1	> 46

SMILES	IC50 [µM]
CCOCCn1c(N2CCCN(C)CC2)nc2ccccc21.O=C(O)/C=C/C(=O)O.O=C(O)/C=C/C(=O)O	> 46
CCO[C@@H]1O[C@H](C(COCc2ccccc2)OCc2ccccc2)[C@H](OCc2ccccc2)[C@H]1O (stereo partly specified)	> 46
CCc1cccc(CC)c1NC(=O)CN(CC(=O)O)CC(=O)O	> 46
CCn1cc(C(=O)O)c(=O)c2cc(F)c(N3CCN(C)CC3)cc21.CS(=O)(=O)O	> 46
CC(O)C(=O)O.CCCCCCCCCCCCCCNCCO	> 46
C=C(C)[C@@H]1[C@H]2OC(=O)[C@@H]1[C@]1(O)C[C@H]3O[C@]34C(=O)O[C@H]2[C@]14C.CC(C)(O)[C@@H]1[C@H]2OC(=O)[C@@H]1[C@]1(O)C[C@H]3O[C@]34C(=O)O[C@H]2[C@]14C	> 46
COc1ccc(C(CN(C)C)C2(O)CCCCC2)cc1 (stereo unspecified)	> 46
CC1=C[C@H](O)CC(C)(C)[C@H]1/C=C/C(C)=C/C=C/C(C)=C/C=C/C=C(C)/C=C/C=C(C)/C=C/C1=C(C)C[C@@H](O)CC1(C)C	> 46
CN1C[C@@H](NS(=O)(=O)N(C)C)C[C@@H]2c3cccc4c3c(cn4C)C[C@H]21	> 46
O=C(O)C(Cc1cc(I)c(O)c(I)c1)c1ccccc1 (stereo unspecified)	> 46
Cl.FC(F)(F)c1cccc(C2=CCN(CCc3ccc4ccccc4c3)CC2)c1	> 46
O=[N+]([O-])c1cccc(S(=O)(=O)NCCNS(=O)(=O)c2cccc([N+](=O)[O-])c2)c1	> 46
COc1cccc([C@@]2(O)CCCC[C@@H]2CN(C)C)c1	> 46
O=C([O-])CCCc1ccccc1.[Na+]	> 46
ClCC1CO1 (stereo unspecified)	> 46
NCCCC(=O)O	> 46
CC(=O)Nc1c(I)cc(I)c(C(=O)O)c1I	> 46
CC[C@H](C)[C@H](N)C1=N[C@H](C(=O)N[C@@H](CC(C)C)C(=O)N[C@H](CCC(=O)O)C(=O)N[C@H](C(=O)N[C@H]2CCCCNC(=O)[C@H](CC(N)=O)NC(=O)[C@@H](CC(=O)O)NC(=O)[C@H](Cc3cnc[nH]3)NC(=O)[C@@H](Cc3ccccc3)NC(=O)[C@H]([C@@H](C)CC)NC(=O)[C@@H](CCCN)NC2=O)[C@@H](C)CC)CS1	> 46

The next lines start with the values.

IC50 [µM]	SMILES
> 46	O=c1[nH]cnc2c1ncn2[C@H]1CC[C@@H](CO)O1
> 46	CC(C)COC(=O)c1ccc(N)cc1
> 46	C=C[C@]1(C)C[C@@H](OC(=O)CSC(C)(C)CNC(=O)[C@H](N)C(C)C)[C@]2(C)[C@H](C)CC[C@]3(CCC(=O)[C@H]32)[C@@H](C)[C@@H]1O
> 46	F[C@]1([C@](C)2C=C3)[C@@H](O)C[C@@]([C@]([C@@](CO)=O)(O)[C@H]4C)(C)[C@](C4)([H])[C@@]([H])1CCC2=CC3=O
> 46	CO[C@@]1(NC(=O)C(C(=O)[O-])c2ccc(O)cc2)C(=O)N2C(C(=O)[O-])=C(CSc3nnnn3C)CO[C@@H]21.[Na+].[Na+] (stereo partly specified)
> 46	CN(C)N=Nc1nc[nH]c1C(N)=O
> 46	Nc1nc2c(ncn2COC(CO)CO)c(=O)[nH]1
> 46	Cc1cc(O)cc(C)c1Cl
> 46	O=C1O[C@H]([C@@H](O)CO)C(O)=C1O
> 46	CC1CCc2cc(F)cc3c(=O)c(C(=O)O)cn1c23 (stereo unspecified)
> 46	C=CCOc1ccccc1OCC(O)CNC(C)C.Cl (stereo unspecified)
> 46	O=C(O)c1cccc(-c2noc(-c3ccccc3F)n2)c1
> 46	CCn1nc(C(=O)O)c(=O)c2cc3c(cc21)OCO3
> 46	C[C@@H]1CN(c2c(F)c(F)c3c(=O)c(C(=O)O)cn(C4CC4)c3c2F)C[C@H](C)N1
> 46	CN1CCN(C2=Nc3cc(F)ccc3Cc3ccccc32)CC1
> 46	Cc1cc(=O)[nH]c(=S)[nH]1
> 46	Cc1ncc([N+](=O)[O-])n1CCO
> 46	O=S(=O)(O)c1ccc(O)cc1
> 46	O=[C@@](NC2=O)[C@](N2)3C1=C(OCC3)C=CC(F)=C1
> 46	CCOC(=O)c1ccc(O)cc1
> 46	CCN(CC)CCNC(=O)C1C(C)=NC(/C=C2/C(=O)Nc3ccc(F)cc32)=C1C.O=C(O)CC(O)C(=O)O (stereo unspecified)
> 46	Nc1ncnc2c1ncn2[C@@H]1O[C@H](COP(=O)(O)OP(=O)(O)OP(=O)(O)O)[C@@H](O)[C@H]1O
> 46	CN1CCN(CC(=O)N2c3ccccc3C(=O)Nc3cccnc32)CC1
> 46	COc1cc(C(=S)N2CCOCC2)ccc1O
> 46	C=C[C@H]1CN2CC[C@H]1C[C@@H]2[C@@H](O)c1ccnc2ccc(OC)cc12
> 46	CCN(CC)CCOC(=O)c1ccc(N)cc1.Cl
> 46	CNC1CCCN(c2c(F)cc3c(=O)c(C(=O)O)cn(C4CC4)c3c2OC)C1 (stereo unspecified)
> 46	O=C3[C@@H]4[C@]([C@](CC6)(C)[C@H]([C@@]5=COC=C5)O3)(O4)[C@@]2(C)[C@@]6([H])[C@@]1(CO7)[C@H](CC7=O)OC(C)(C)[C@@]([H])1CC2=O
> 46	Nc1ccc(S(=O)(=O)Nc2cnc3ccccc3n2)cc1
> 46	Cl.Nc1cc(Cl)c(NC2=NCCN2)c(Cl)c1
